{
  "source": "patent US5041426A",
  "about": "“Immune system enhancing 3-β-d-ribofuranosylthiazolo[4,5-d]pyridimine nucleosides and nucleotides” (priority 1988, dated 1991)",
  "key": {"[1]": {"tested_on": "Human Coronavirus", "test": "Antiviral activity against human coronavirus infection in 14 day old mice", "settings": "half daily doses at -24 and -18 h, of mice that died"}, "[2]": {"tested_on": "Herpes Simplex Virus Type 2", "test": "Antiviral activity against Herpes simplex virus type 2 infection in mice", "assay_type": "in vivo, mouse", "settings": "for Mean Survival Time: at -48, -24, and -2 h", "protocol": "In this test Compound 7 was tested against both Herpes Simplex Type 1 Virus and Herpes Simplex Type 2 Virus. […] In each of these tests a placebo was utilized for control purposes. The survival time reflects survival time of those animals which succumbed during the test. […]\n^b A 2% sodium bicarbonate solution was used as the placebo and as\ndiluent for Compound -7.\n^c Statistically significant (p < .05) difference between the\ndrugtreated and placebo control mice, determined by the twotailed ttest."}, "[3]": {"tested_on": "K562 tumor cells", "test": "In vitro augmentation of human natural killer cell activity (PBMNC, 51Cr release)", "assay_type": "cell-based", "design": "% Increase in Induced Natural Killer Cell Activity: concentration or dose not given beside the values", "protocol": "The natural killer cell activity in human cells was also measured. In conducting these tests peripheral blood mononuculear cells (PBMNC) were isolated on Ficoll-Hypaque gradient, washed three times in Hanks and re-suspended in RPMI-1640 containing 10% human AB serum as described in Rosenberg, S. A.: Journal American Medical Association, 256:3117, 1986 and the above referred to reference to Djeu, et al. Peripheral blood mononuclear cells (PBMNC) from eleven different donors were treated with compound 7 as described in Djeu, et al. as well as Sharma, B., Odom, L. F.: Cancer Immunol. Immunother. 7.93, 1979, and Sharma, B., Odom, L. F.: Cancer Research 44:3258, 1984.\nThe PBMNC cells were incubated with compound 7 at 37° C. for 20 to 68 hours in a 5% CO2 humid atmosphere and after incubation the cytotoxicity was determined against K562 tumor cells.\n^a Peripheral blood mononuclear cells were treated with 0.05 - 0.4 mM\nconcentration of compound 7 in RPM11640 containing 10% human AB serum for\n20 to 68 hours. After the treatment, effector cells were tested against\nK562 target cells in 4 hour ^51 Cr release assay as described in\nSharma et al. above. The data shown here represent the maximum response.\nK562 target cells in 4 hour ^51 Cr release assay as previously\ndescribed above in Sharma et al. The data represent the maximum response.\nOther Nucleosides and Nucleotides of the invention were tested for their activity in human natural killer cells […] as per example 33 above."}, "[4]": {"tested_on": "Herpes Simplex Virus Type 1", "test": "Antiviral activity against Herpes simplex virus type 1 infection in mice", "assay_type": "in vivo, mouse", "settings": "at -48, -24, and -2 h"}, "[5]": {"tested_on": "Reticulum-cell Sarcoma M5076", "test": "Mean life span of mice with metastatic reticulum-cell sarcoma", "assay_type": "in vivo, mouse", "protocol": "Effect of drug treatment on the mean life span of host animals implanted with metastatic reticulum-cell sarcoma M5076 was measured using the same test protocol as per example 54. The host animals were drug dosed for 20 days as per example 54, however, as opposed to example 54 they were monitored for survival.\n(§1) ^a Fragments of reticulumcell sarcoma M5076 (≈14 mg) were\n(§2) implanted sc in the left flank of BDF1 female mice and ip bolus\n(§3) injections of drug were initiated 24 hrs later. The drug was delivered on\n(§4) the basis of 0.01 ml/g mouse weight. Control mice received a 0.09%\nsolution of NaCl delivered on the same basis. Six mice were used per\ntreatment group. Treatment give qd for days 1-20 and animals monitored\nafter treatment for survival."}, "[6]": {"tested_on": "Reticulum-cell Sarcoma M5076", "test": "Reduction of reticulum-cell sarcoma metastatic foci in mice", "assay_type": "in vivo, mouse", "protocol": "Utilizing the protocol of Alessandri, G., Giavazzi, R., Falautano, P., Spreafico, F., Garattini, S., and Mantovani, A., European J. Cancer, 17:651-658, 1981, the antimetastatic activity of Compound 7 is seen in a sarcoma M5076 tumor system.\nFragments of reticulum-cell sarcoma M5076 were introduced into mice. The animals were treated with compound 7 for 20 days at various dosages. After treatment, the required tissues were collected, fixed in Bouin's solution and subjected to microscopic observation to enumerate metastatic foci. The results are shown in table 26 as the number of metastatic foci and table 27 as the number of mice with metastatic foci. In table 26 both the range and the median number of foci for each test group is indicated.\nas §1, §2, §3, §4\nsolution of NaCl delivered on the same basis. Seven mice were used per\ntreatment group. Treatment give qd for days 1- 20."}, "[7]": {"tested_on": "Human Peripheral Blood Mononuclear Cells", "test": "In vitro potentiation of IgM production by human PBMNC or B cells (ELISA)", "assay_type": "cell-based", "protocol": "After incubation, supernatants were harvested and checked for […]"}, "[8]": {"settings": "62 mg/kg ip qd days 1-20, p < 0.005"}},
  "note": "Where “and” joins values, the source holds several entries; their conditions need not be identical. Equal entries are not always repeated.",
  "data": [
    {"smiles": "Nc1nc2c(sc(=O)n2[C@@H]2O[C@H](CO)[C@@H](O)[C@H]2O)c(=O)[nH]1", "note": "[Compound 7, 5-Amino-3-β-D-ribofuranosylthiazolo[4,5-d]pyrimidine-2,7(6H)-dione]", "values": [
      {"measurement": "Mean Survival Time", "setting": "[1]; 50 mg/kg", "value": "6.9 ± 2.2", "unit": "days"},
      {"measurement": "Mean Survival Time", "setting": "[1]; 100 mg/kg", "value": "7.2 ± 2.0", "unit": "days"},
      {"measurement": "Mean Survival Time", "setting": "[1]; 200 mg/kg", "value": "7.0 ± 1.4", "unit": "days"},
      {"measurement": "Mean Survival Time", "setting": "[2]; 50 mg/kg/day", "value": "11.8 ± 2.3", "unit": "days"},
      {"measurement": "Mean Survival Time", "setting": "[2]; 100 mg/kg/day", "value": "11.2 ± 1.5", "unit": "days"},
      {"measurement": "toxicity", "setting": "[2]; 200 mg per kg in the mouse", "value": "partially toxic"},
      {"measurement": "Mean Survival Time", "setting": "[2]; 200 mg/kg/day", "value": "7.2 ± 3.9", "unit": "days"},
      {"measurement": "deaths from drug toxicity", "setting": "[2]; 200 mg/kg/day, days 1 and 2 post virus inoculation", "value": "Three mice died on days 1 and 2"},
      {"measurement": "survival time of the rest of the mice that died", "setting": "[2]; 200 mg/kg/day, excluding three toxicity deaths", "value": "9.6 ± 0.8", "unit": "days"},
      {"measurement": "% Natural Killer Cell Cytotoxicity, + Compound 7", "setting": "[3]; 0.05 - 0.4 mM, 20 to 68 h, maximum response, donors 1 to 11, one line per donor in order", "value": "91% and 29% and 54% and 47% and 16% and 18% and 10% and 22% and 15% and 20% and 32%"},
      {"measurement": "tests with an increase in the mediated potentiation", "setting": "[3]; Donor 1, Table 2b", "value": "eight of the eight tests"},
      {"measurement": "tests with an increase in the mediated potentiation", "setting": "[3]; Donor 2, Table 2b", "value": "six of six tests"},
      {"measurement": "mean natural killer cell cytotoxicity", "setting": "[3]; PBMNC from eleven donors pretreated with compound 7 (untreated mean 11.7%)", "value": 32.2, "unit": "%"},
      {"measurement": "% Natural Killer Cell Cytotoxicity", "setting": "[3]; Table 22, 0.2 mM", "value": 10, "unit": "%"},
      {"measurement": "% Increase in Induced Natural Killer Cell Activity", "setting": "[3]; donors 1 to 11, one line per donor in order", "value": "1031% and 548% and 220% and 88% and 123% and 141% and 167% and 150% and 0% and 63% and 8%"},
      {"measurement": "potentiation in natural killer cell cytotoxicity", "setting": "[3]; eight of eleven donors", "value": "over 100%"},
      {"measurement": "Mean Survival Time", "setting": "[4]; 50 mg/kg/day", "value": "14.8 ± 5.0", "unit": "days"},
      {"measurement": "Mean Survival Time", "setting": "[4]; 100 mg/kg/day", "value": "11.4 ± 1.8", "unit": "days"},
      {"measurement": "Mean Survival Time", "setting": "[4]; 200 mg/kg/day", "value": "11.0 ± 1.7", "unit": "days"},
      {"measurement": "Increased Life Span", "setting": "[5]; 37 mg/kg ip qd days 1-20", "value": "7.0 % of Control"},
      {"measurement": "Postinoculation Life Span", "setting": "[5]; 37 mg/kg ip qd days 1-20", "value": "32.33 ± 3.67", "unit": "days"},
      {"measurement": "Increased Life Span", "setting": "[5]; 62 mg/kg ip qd days 1-20", "value": "19.8 % of Control"},
      {"measurement": "Postinoculation Life Span", "setting": "[5]; 62 mg/kg ip qd days 1-20, p 0.01", "value": "36.33 ± 0.82", "unit": "days"},
      {"measurement": "Increased Life Span", "setting": "[5]; 104 mg/kg ip qd days 1-20", "value": "20.3 % of Control"},
      {"measurement": "Postinoculation Life Span", "setting": "[5]; 104 mg/kg ip qd days 1-20, p < 0.03", "value": "36.50 ± 4.55", "unit": "days"},
      {"measurement": "Mice With Metastatic Foci in Lung (+/7)", "setting": "[6]; 37 mg/kg ip qd days 1-20", "value": "7/7"},
      {"measurement": "Number of Metastatic Foci in Liver, Range", "setting": "[6]; 37 mg/kg ip qd days 1-20", "value": "0-17"},
      {"measurement": "Number of Metastatic Foci in Lung, Range", "setting": "[6]; 37 mg/kg ip qd days 1-20", "value": "1-11"},
      {"measurement": "Number of Metastatic Foci in Liver, Medium", "setting": "[6]; 37 mg/kg ip qd days 1-20, p < 0.005", "value": 1},
      {"measurement": "Number of Metastatic Foci in Lung, Median", "setting": "[6]; 37 mg/kg ip qd days 1-20, p < 0.01", "value": 6},
      {"measurement": "Mice With Metastatic Foci in Liver (+/7)", "setting": "[6]; 37 mg/kg ip qd days 1-20, p < 0.05", "value": "4/7"},
      {"measurement": "Mice With Metastatic Foci in Lung (+/7)", "setting": "[6]; 62 mg/kg ip qd days 1-20", "value": "6/7"},
      {"measurement": "Number of Metastatic Foci in Liver, Range", "setting": "[6]; 62 mg/kg ip qd days 1-20", "value": "0-1"},
      {"measurement": "Number of Metastatic Foci in Lung, Range", "setting": "[6]; 62 mg/kg ip qd days 1-20", "value": "0-29"},
      {"measurement": "Mice With Metastatic Foci in Liver (+/7)", "setting": "[6]; [8]", "value": "1/7"},
      {"measurement": "Number of Metastatic Foci in Liver, Medium", "setting": "[6]; [8]", "value": 0},
      {"measurement": "Number of Metastatic Foci in Lung, Median", "setting": "[6]; 62 mg/kg ip qd days 1-20, p < 0.09", "value": 2},
      {"measurement": "Number of Metastatic Foci in Liver, Range", "setting": "[6]; 104 mg/kg ip qd days 1-20", "value": "0-0"},
      {"measurement": "Number of Metastatic Foci in Lung, Range", "setting": "[6]; 104 mg/kg ip qd days 1-20", "value": "0-4"},
      {"measurement": "Mice With Metastatic Foci in Liver (+/7)", "setting": "[6]; 104 mg/kg ip qd days 1-20, p < 0.0005", "value": "0/7"},
      {"measurement": "Number of Metastatic Foci in Liver, Medium", "setting": "[6]; 104 mg/kg ip qd days 1-20, p < 0.0009", "value": 0},
      {"measurement": "Number of Metastatic Foci in Lung, Median", "setting": "[6]; 104 mg/kg ip qd days 1-20, p < 0.003", "value": 0},
      {"measurement": "Mice With Metastatic Foci in Lung (+/7)", "setting": "[6]; 104 mg/kg ip qd days 1-20, p < 0.025", "value": "3/7"},
      {"measurement": "increase of IgM over cultures without compound 7", "setting": "[7]; SAC activated PBMNC", "value": "over a two fold increase"},
      {"measurement": "increase in IgM production", "setting": "[7]; up to", "value": "up to 34 fold"}
    ]}
  ]
}
